# Measured values reported in US7001921B1, “Cell adhesion inhibitors” (Biogen Idec MA Inc., priority 1995, dated 2006).
# Molecular target: T1, VLA4 (Homo sapiens, UniProt P05556+P13612)
# T1 construct: endogenous in cells; host or cells: Ramos cells
# Experiment: Inhibition of VLA4-dependent adhesion to BSA-CS1 (labelled Ramos cells)
# Type: cell-based
# Details: binding of BCECF-AM labelled Ramos cells to CS1 peptide-coated wells, 2 mM MnCl2, 30 minutes at room temperature; IC50 range
# Outline: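 Ramos cells labelled with 2 μM BCECF-AM, with 2 mM MnCl2 added to upregulate VLA4, were incubated with test compound (final 0.01 nM–10 μM, triplicate) on BSA-CS1-coated wells for 30 min at room temperature in TRIS buffer pH 7.4. After washing, bound fluorescence was read, with uncoated wells giving non-specific binding.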
# T1 sequence (P13612 34-1032): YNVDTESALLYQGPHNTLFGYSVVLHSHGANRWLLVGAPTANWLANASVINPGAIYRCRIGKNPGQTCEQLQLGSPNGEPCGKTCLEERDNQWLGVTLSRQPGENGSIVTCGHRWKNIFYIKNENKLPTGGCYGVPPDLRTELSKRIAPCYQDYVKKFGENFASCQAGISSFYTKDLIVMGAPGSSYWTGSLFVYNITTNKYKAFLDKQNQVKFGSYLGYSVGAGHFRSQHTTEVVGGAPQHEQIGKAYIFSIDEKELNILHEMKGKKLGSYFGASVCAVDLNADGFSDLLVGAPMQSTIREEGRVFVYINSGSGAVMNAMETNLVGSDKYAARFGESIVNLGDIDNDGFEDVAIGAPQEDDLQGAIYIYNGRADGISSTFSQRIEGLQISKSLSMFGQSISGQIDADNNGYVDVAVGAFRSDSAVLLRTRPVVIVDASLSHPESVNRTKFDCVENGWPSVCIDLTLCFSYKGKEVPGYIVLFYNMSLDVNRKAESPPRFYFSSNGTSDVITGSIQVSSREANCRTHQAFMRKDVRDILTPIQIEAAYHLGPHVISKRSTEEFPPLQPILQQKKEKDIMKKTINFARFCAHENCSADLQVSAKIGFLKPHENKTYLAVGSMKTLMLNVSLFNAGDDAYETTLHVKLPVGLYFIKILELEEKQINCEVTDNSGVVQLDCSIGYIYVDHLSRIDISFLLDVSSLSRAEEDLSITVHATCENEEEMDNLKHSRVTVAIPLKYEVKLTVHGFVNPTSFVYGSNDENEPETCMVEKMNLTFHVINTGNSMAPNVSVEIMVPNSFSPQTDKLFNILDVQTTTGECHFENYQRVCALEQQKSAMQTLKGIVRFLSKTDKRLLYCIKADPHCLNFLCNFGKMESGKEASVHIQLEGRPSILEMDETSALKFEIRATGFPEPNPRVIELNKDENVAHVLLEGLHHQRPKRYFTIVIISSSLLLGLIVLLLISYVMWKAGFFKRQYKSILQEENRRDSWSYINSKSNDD
# T1 sequence (P05556 21-798): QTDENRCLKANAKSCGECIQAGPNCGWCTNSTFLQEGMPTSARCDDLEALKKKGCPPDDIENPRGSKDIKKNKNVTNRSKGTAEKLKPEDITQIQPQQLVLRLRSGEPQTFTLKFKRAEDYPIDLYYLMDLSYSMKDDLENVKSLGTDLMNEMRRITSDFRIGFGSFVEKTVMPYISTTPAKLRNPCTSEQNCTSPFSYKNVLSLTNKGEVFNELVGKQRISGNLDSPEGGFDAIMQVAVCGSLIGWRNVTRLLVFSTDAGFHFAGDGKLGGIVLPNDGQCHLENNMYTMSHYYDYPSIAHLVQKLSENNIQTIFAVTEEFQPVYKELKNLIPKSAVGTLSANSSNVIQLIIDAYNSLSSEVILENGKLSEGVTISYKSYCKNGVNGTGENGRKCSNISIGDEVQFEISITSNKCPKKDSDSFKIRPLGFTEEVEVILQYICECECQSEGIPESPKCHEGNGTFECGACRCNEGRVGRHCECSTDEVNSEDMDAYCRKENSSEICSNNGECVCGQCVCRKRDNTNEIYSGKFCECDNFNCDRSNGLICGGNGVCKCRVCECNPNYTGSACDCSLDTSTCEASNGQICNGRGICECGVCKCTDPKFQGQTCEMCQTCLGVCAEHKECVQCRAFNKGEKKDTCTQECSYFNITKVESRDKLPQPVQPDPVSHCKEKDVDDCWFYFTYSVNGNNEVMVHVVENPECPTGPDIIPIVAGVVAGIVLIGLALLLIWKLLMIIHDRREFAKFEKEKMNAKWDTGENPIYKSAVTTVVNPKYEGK
row,IC50 [nM],Structure (SMILES)
1,50 to 10000,CCc1ccccc1NC(=O)Nc1ccc(CC(=O)NC(CC(C)C)C(=O)NC(CC(=O)O)c2ccc3c(c2)OCO3)cc1 (stereo not shown) [compound 1200]
2,50 to 10000,CC(C)CC(NC(=O)Cc1ccc(NC(=O)Nc2ccccc2[N+](=O)[O-])cc1)C(=O)NC(CC(=O)O)c1ccc2c(c1)OCO2 (stereo not shown) [compound 1201]
3,< 50,CC(C)CC(NC(=O)Cc1ccc(NC(=O)Nc2ccccc2C(C)C)cc1)C(=O)NC(CC(=O)O)c1ccc2c(c1)OCO2 (stereo not shown) [compound 1206]
4,> 10000,COc1ccc(C(CC(=O)O)NC(=O)C(CC(C)C)NC(=O)Cc2ccc(NC(=O)Nc3ccccc3C(C)C)cc2)cc1 (stereo not shown) [compound 1207]
5,50 to 10000,CCc1ccccc1NC(=O)Nc1ccc(CC(=O)NC(CC(C)C)C(=O)NC(CC(=O)O)c2ccc(OC)cc2)cc1 (stereo not shown) [compound 1208]
6,> 10000,CC(C)CC(NC(=O)Cc1ccc(NC(=O)Nc2ccccc2C(C)(C)C)cc1)C(=O)NC(CC(=O)O)c1ccc2c(c1)OCO2 (stereo not shown) [compound 1209]
7,< 50,Cc1ccccc1NC(=O)Nc1ccc(CC(=O)NC(CC(C)C)C(=O)NC(CC(=O)O)c2ccc3c(c2)OCCO3)cc1 (stereo not shown) [compound 1210]
8,50 to 10000,CN(C)C(=O)CC(NC(=O)Cc1ccc(NC(=O)Nc2ccccc2)cc1)C(=O)NC(CC(=O)O)c1ccc2c(c1)OCO2 (stereo not shown) [compound 1214]
9,> 10000,CN(C)CCC(NC(=O)Cc1ccc(NC(=O)Nc2ccccc2)cc1)C(=O)NC(CC(=O)O)c1ccc2c(c1)OCO2 (stereo not shown) [compound 1215]
10,50 to 10000,O=C(O)CC(NC(=O)C(CCC(=O)N1CCOCC1)NC(=O)Cc1ccc(NC(=O)Nc2ccccc2)cc1)c1ccc2c(c1)OCO2 (stereo not shown) [compound 1216]
11,< 50,COc1ccc(C(CC(=O)O)NC(=O)C(CCCCNC(=O)OCc2ccccc2)NC(=O)Cc2ccc(NC(=O)Nc3ccccc3C)cc2)cc1OC (stereo not shown) [compound 1217]
12,50 to 10000,COc1ccc(C(CC(=O)O)NC(=O)C(CC(C)C)NC(=O)Cc2ccc(NC(=O)Nc3ccccn3)cc2)cc1OC (stereo not shown) [compound 1218]
13,50 to 10000,COc1ccc(C(CC(=O)O)NC(=O)C(CC(C)C)NC(=O)Cc2ccc(NC(=O)Nc3cccnc3)cc2)cc1OC (stereo not shown) [compound 1219]
14,50 to 10000,COc1ccc(C(CC(=O)O)NC(=O)C(CC(C)C)NC(=O)Cc2ccc(NC(=O)Nc3cccnc3C)cc2)cc1 (stereo not shown) [compound 1220]
15,< 50,COc1cc(CC(=O)NC(CC(C)C)C(=O)NC(CC(=O)O)c2ccc3c(c2)OCO3)ccc1NC(=O)Nc1ccccc1C (stereo not shown) [compound 1221]
16,< 50,COc1cc(CC(=O)NC(CC(C)C)C(=O)NC(CC(=O)O)c2ccc3c(c2)OCO3)ccc1NC(=O)Nc1ccccc1Cl (stereo not shown) [compound 1222]
17,< 50,COc1ccc(C(CC(=O)O)NC(=O)C(CCSC)NC(=O)Cc2ccc(NC(=O)Nc3ccccc3C)cc2)cc1OC (stereo not shown) [compound 1224]
18,< 50,COc1ccc(C(CC(=O)O)NC(=O)C(CCSC)NC(=O)Cc2ccc(NC(=O)Nc3ccccc3C)cc2)cc1 (stereo not shown) [compound 1238]
19,< 50,Cc1ccccc1NC(=O)Nc1ccc(CC(=O)NC(CCS(C)(=O)=O)C(=O)NC(CC(=O)O)c2ccc3c(c2)OCO3)cc1 (stereo not shown) [compound 1245]
20,< 50,Cc1ccccc1NC(=O)Nc1ccc(CC(=O)NC(CC(C)C)C(=O)NC(CC(=O)O)c2ccc(F)cc2)cc1 (stereo not shown) [compound 1248]
21,< 50,CC(=O)NCCCCC(NC(=O)Cc1ccc(NC(=O)Nc2ccccc2C)cc1)C(=O)NC(CC(=O)O)c1ccc2c(c1)OCO2 (stereo not shown) [compound 1270]
22,< 50,Cc1ccccc1NC(=O)Nc1ccc(CC(=O)NC(CC(C)C)C(=O)NC(CC(=O)O)c2ccc3c(c2)OCO3)cc1 (stereo not shown) [compound 1282]
23,< 50,Cc1ccccc1NC(=O)Nc1ccc(CC(=O)NC(CCCCNS(C)(=O)=O)C(=O)NC(CC(=O)O)c2ccc3c(c2)OCO3)cc1 (stereo not shown) [compound 1294]
24,< 50,Cc1ccccc1NC(=O)Nc1ccc(CC(=O)NC(CC(C)C)C(=O)NC(CC(=O)O)c2ccc(C(=O)O)cc2)cc1 (stereo not shown) [compound 1321]
25,< 50,COc1nc(CC(=O)NC(CC(C)C)C(=O)NC(CC(=O)O)c2ccc3c(c2)OCO3)ccc1NC(=O)Nc1ccccc1C (stereo not shown) [compound 1336]
26,50 to 10000,CN=C(Nc1ccccc1)Nc1ccc(CC(=O)NC(CC(C)C)C(=O)NC(CC(=O)O)c2ccc3c(c2)OCO3)cc1 (stereo not shown) [compound 1380]
27,< 50,COC(=O)c1ccc(C(CC(=O)O)NC(=O)C(CCCCNS(C)(=O)=O)NC(=O)Cc2ccc(NC(=O)Nc3ccccc3C)cc2)cc1 (stereo not shown) [compound 1382]
28,50 to 10000,CC(C)CC(NC(=O)Cc1ccc(Nc2ncc[nH]2)cc1)C(=O)NC(CC(=O)O)c1ccc2c(c1)OCO2 (stereo not shown) [compound 1390]
